According to publication PMC3197640, “Human Engineered Heart Tissue as a Versatile Tool in Basic Research and Preclinical Toxicology” (PLoS ONE, 2011):
Where two headings read alike, the source gives them in different places.

Key:
[1] = system: human engineered heart tissue (hEHT); conditions: for Threshold concentration at which the compound significantly decreased relaxation velocity / Threshold concentration inducing irregular beating patterns (RR-scatter): human, 30 min
Procedure: Calcium-concentration response curves were established in DMEM, 1% penicillin/streptomycin, 10 mM HEPES, and 100 µM acetylcysteine with calcium concentrations adjusted to the desired final concentration (0.2–3.0 mmol/L). Equilibration time was 20 minutes. Measurements were performed under spontaneous activity by automated video-optical recording and analysis (customized software, Consulting Team Machine Vision) as previously described. Contractile force F was calculated from the degree of post deflection δ (µm), silicone post length (L) and radius (R) and elastic modulus (E) by the formula F = 3πER^4δ/4L^3 [29]. Contraction- and relaxation velocities were calculated as the average maximal steepness of twitch contraction or relaxation, respectively. Each value represents the mean of all measurable contraction twitches in the recording period of 60 seconds per hEHT.
EHTs were equilibrated in DMEM, 1% penicillin/streptomycin, 10 mM HEPES, 100 µM acetylcysteine for one hour. […] Isoprenaline and carbachol were used at 100 nM and 10 µM, respectively.
Intervals between two contractions were determined for all recordings. […] Interval scatter was therefore defined as the length between 10th and 90th percentile (interdecile range, IDR). Statistical difference between groups of biological replicas were determined with Mann-Whitney U Test (*P<0.05).

hERG channel = conditions: cited from earlier work
[2] = system: hESC-derived cardiomyocytes (EBs and EHTs); assay: Action potential measurements with sharp microelectrodes (zero current clamp); format: cell-based, human
[3] = read-out: Published IC50 (hERG), hERG channel assays

SMILES: Cc1cccc(CCN2CCC(C(=O)c3ccc(NS(C)(=O)=O)cc3)CC2)n1 [E-4031]
- Effect on APD ([2]; 300 nM, P<0.05, n = 4): significant prolongation

SMILES: CCN(CC)CCNC(=O)c1ccc(N)cc1 [Procainamide]
- Threshold concentration at which the compound significantly decreased relaxation velocity [1]: 100000 nM
- Threshold concentration inducing irregular beating patterns (RR-scatter) [1]: 100000 nM
- IC50 (hERG channel; [3]): 139000 nM

SMILES: [Ca+2] [calcium]
- Decrease in force ([1]; hEHT, lowering calcium from 1.8 mM (baseline) to 0.2 mM): 90%

SMILES: C[N+](C)(C)CCOC(N)=O [carbachol]
- Effect on isoprenaline-induced changes in frequency and force ([1]; hEHT, 10 µM, after isoprenaline 100 nM, 0.6 mM calcium): reversed

SMILES: CC(C)NCC(O)c1ccc(O)c(O)c1 (centres unmarked) [isoprenaline]
- Effect on beating frequency ([1]; hEHT, 100 nM, 0.6 mM calcium): positive chronotropic effect
- Effect on force ([1]; hEHT, 100 nM, 0.6 mM calcium): trend towards an increase in force (not significant)

SMILES: COC(=O)C1=C(C)NC(C)=C(C(=O)OCC(C)C)C1c1ccccc1[N+](=O)[O-] (centres unmarked) [nisoldipine]
- Effect on electrical activity and contractions ([2]; 1 µM, all spontaneously beating hESC cultures): completely interrupted

SMILES: NC1=N[C@H](O)[C@H]2[C@H]3O[C@]4(O)O[C@@H]([C@@H](O)[C@@]2(N1)[C@@H]4O)[C@]3(O)CO [tetrodotoxin]
- Effect on AP upstroke velocity [2]: significant decrease
- Effect on APD80 and diastolic interval [2]: significant prolongation
